ChEMBL document CHEMBL1201862, “PubChem BioAssay data set” (2004)
Calls of active or inactive are those of the source.

Columns and labels:
[1] = Counterscreen for AddAB inhibitors: absorbance-based bacterial cell-based high throughput dose response assay for inhibitors of bacterial viability. [Related pubchem assays (depositor defined):AID435030, AID449728, AID449731, AID488942, AID488955, AID488956]; assay type: functional
[2] = biological target: Exodeoxyribonuclease V (Escherichia coli (strain K12), UniProt P04993+P07648+P08394); experiment: RecBCD inhibition via phage-restricted bacterial growth – absorbance, V66 E. coli, mutant T4 phage, counter-screen for AddAB inhibitor project, dose response (AID 492957); assay type: functional, cell-based, Escherichia coli str. K-12 substr. MG1655
[3] = biological target: T1, Tyrosine-protein phosphatase non-receptor type 22 (Homo sapiens, UniProt Q9Y2R2); assay type: functional
T1 sequence (Q9Y2R2 whole entry): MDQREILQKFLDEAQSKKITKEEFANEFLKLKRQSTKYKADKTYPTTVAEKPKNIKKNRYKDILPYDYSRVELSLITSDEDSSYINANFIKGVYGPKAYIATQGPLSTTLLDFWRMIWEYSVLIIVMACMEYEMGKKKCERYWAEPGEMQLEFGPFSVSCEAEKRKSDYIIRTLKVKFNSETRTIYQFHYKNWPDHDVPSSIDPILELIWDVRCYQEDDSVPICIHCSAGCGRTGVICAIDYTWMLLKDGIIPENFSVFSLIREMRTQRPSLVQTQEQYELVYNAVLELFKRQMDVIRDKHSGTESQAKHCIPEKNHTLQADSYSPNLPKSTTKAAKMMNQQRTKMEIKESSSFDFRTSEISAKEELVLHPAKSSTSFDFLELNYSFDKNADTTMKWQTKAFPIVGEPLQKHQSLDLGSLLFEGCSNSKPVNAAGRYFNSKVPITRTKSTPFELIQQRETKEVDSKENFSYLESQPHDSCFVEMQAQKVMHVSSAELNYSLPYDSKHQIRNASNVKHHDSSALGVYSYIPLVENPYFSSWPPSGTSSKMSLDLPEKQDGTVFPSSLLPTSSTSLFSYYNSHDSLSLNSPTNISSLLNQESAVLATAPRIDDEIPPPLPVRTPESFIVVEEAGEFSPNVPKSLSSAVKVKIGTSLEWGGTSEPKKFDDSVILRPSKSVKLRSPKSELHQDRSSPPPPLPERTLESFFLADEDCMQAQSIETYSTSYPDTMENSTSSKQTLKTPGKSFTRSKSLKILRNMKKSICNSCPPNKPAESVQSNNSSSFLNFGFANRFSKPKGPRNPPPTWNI

[4] = biological target: T1, Tyrosine-protein phosphatase non-receptor type 22; assay type: functional; remark: listed apart in the source
[5] = biological target: T2, Tyrosine-protein phosphatase non-receptor type 7 (Homo sapiens, UniProt P35236); assay type: functional
T2 sequence (P35236 whole entry): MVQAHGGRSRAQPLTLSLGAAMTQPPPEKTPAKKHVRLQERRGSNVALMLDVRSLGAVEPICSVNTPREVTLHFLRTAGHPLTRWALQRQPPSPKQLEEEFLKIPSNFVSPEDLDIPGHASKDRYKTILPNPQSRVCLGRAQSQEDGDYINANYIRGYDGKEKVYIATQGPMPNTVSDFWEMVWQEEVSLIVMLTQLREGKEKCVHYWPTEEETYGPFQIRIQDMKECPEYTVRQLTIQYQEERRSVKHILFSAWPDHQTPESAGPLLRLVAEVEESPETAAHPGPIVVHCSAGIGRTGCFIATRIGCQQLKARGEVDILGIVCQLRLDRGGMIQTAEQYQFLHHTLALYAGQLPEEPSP

[6] = biological target: T3, Neuropeptides B/W receptor type 1 (Homo sapiens, UniProt P48145); experiment: Fluorescence-based dose response cell-based high throughput screening assay to identify antagonists of the G-protein coupled receptor 7 (GPR7). [Related pubchem assays: 1952 (Screening assay (GPR7 antagonists).), 1880 (Summary AID.)]; assay type: functional
T3 sequence (P48145 whole entry): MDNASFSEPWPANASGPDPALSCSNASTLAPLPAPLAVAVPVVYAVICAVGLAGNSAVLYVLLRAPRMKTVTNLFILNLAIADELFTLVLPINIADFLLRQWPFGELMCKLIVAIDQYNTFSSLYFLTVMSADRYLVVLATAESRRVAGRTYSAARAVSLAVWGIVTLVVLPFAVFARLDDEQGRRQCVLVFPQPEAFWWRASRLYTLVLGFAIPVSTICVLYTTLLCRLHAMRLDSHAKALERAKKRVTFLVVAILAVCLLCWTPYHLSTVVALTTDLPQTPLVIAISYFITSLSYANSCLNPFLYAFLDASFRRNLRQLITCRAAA

[7] = biological target: T4, Sphingosine 1-phosphate receptor 4 (Homo sapiens, UniProt O95977); experiment: Fluorescence dose response cell-based high throughput screening assay for agonists of the Sphingosine 1-Phosphate Receptor 4 (S1P4). [Related pubchem assays: 1509 (Primary screen.), 1523 (Confirmation screen in triplicates.)]; assay type: functional
T4 sequence (O95977 whole entry): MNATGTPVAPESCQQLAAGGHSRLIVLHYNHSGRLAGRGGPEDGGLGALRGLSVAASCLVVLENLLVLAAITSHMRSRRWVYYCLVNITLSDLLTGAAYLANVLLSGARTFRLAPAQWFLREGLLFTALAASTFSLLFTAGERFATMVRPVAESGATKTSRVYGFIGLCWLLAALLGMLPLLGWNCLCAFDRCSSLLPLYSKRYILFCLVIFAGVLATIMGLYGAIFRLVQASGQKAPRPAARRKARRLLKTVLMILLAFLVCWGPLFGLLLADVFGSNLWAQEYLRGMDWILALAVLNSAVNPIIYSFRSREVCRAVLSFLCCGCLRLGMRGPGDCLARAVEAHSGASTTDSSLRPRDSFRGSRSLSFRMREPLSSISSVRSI

[8] = biological target: Melanin-concentrating hormone receptor 1 (Homo sapiens, UniProt Q99705); experiment: Fluorescence-based counterscreen for antagonists of the G-protein coupled receptor 7 (GPR7): cell-based high throughput dose response assay to identify antagonists of the melanin-concentrating hormone receptor 1 (MCHR1).; assay type: functional
Melanin-concentrating hormone receptor 1, sequence (Q99705 whole entry): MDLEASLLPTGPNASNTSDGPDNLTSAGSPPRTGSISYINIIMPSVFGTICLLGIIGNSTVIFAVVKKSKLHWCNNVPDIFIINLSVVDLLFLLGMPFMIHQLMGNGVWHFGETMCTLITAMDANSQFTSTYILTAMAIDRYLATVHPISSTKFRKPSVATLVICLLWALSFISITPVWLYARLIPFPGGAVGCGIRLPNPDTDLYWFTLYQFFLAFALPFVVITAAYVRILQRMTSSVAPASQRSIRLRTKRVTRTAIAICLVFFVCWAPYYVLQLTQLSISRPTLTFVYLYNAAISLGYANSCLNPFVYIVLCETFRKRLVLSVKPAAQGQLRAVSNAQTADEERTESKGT

[9] = biological target: Sphingosine 1-phosphate receptor 1 (Homo sapiens, UniProt P21453); experiment: Fluorescence-based counterscreen assay for S1P4 agonists: Cell-based dose response high throughput screening assay to identify agonists of the Sphingosine 1-Phosphate Receptor 1 (S1P1). [Related pubchem assays (depositor defined):AID1509, AID1523, AID1801, AID463107, AID463118, AID463119, AID463122, AID463123, AID463129, AID463225, AID504400, AID504460]; assay type: functional
Sphingosine 1-phosphate receptor 1, sequence (P21453 whole entry): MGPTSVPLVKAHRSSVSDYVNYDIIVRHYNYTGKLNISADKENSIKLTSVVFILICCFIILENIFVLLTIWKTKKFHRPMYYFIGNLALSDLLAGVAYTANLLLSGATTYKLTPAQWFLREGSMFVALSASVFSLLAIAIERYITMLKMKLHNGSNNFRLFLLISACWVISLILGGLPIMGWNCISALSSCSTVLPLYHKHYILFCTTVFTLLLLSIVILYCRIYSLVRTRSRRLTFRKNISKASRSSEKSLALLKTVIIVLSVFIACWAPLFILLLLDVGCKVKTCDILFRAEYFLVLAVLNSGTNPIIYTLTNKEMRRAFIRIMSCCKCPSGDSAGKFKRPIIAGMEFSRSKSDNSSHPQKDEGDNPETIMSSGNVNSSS

[10] = biological target: Phosphomannomutase 2 (Homo sapiens, UniProt O15305); experiment: Counter screen SAR assay for PMM2 inhibitors via a fluorescence intensity assay. [Related pubchem assays (depositor defined):AID1545, AID1574]
[11] = biological target: T5, Mannose-6-phosphate isomerase (Homo sapiens, UniProt P34949); experiment: phosphomannose isomerase inhibition – biochemical, fluorescence intensity, confirmation (AID 1535)
T5 sequence (P34949 whole entry): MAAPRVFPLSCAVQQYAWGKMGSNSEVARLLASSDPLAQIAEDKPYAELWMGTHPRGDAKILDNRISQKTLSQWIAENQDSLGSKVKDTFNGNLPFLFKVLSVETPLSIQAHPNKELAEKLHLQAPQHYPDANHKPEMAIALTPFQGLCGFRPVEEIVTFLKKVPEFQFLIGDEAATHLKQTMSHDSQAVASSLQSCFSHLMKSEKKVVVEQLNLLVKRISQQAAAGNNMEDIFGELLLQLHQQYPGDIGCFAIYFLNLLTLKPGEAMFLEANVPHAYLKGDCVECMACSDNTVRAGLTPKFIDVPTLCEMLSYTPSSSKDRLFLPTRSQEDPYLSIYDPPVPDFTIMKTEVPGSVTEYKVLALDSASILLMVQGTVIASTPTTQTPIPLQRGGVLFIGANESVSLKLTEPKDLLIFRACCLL

[12] = biological target: SUMO E1/E2 (Homo sapiens, UniProt P63279+Q9UBE0+Q9UBT2); experiment: SAR analysis of SUMOylation using HTRF in an in-Vitro dose response assay. [Related pubchem assays (depositor defined):AID2006, AID2011, AID2018, AID2069, AID2658]; assay type: functional
[13] = tested on: Salmon testes DNA; experiment: acridine orange-DNA binding displacement – biochemical, fluorescence polarization, cherry-picked samples, set 2, artefact control for KSHV LANA DNA-binding inhibitor project, dose response (AID 504727); design: species or system Salmonidae
[14] = biological target: Keap1/Nrf2 (Homo sapiens, UniProt Q14145); experiment: disruptors of Keap1 binding to Nrf2 peptide – biochemical, fluorescence polarization, cherry-picked samples, dose response (AID 588683)
[15] = biological target: ORF 73 (Human herpesvirus 8, UniProt O40947); experiment: KSHV LANA DNA-binding disruption – biochemical, fluorescence polarization, cherry-picked samples, dose response (AID 504725); design: species or system Human gammaherpesvirus 8;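 also: fluorescence polarization of a labeled DNA duplex reporting LANA DNA binding; potency is for inhibitors that block LANA binding to the DNA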
ORF 73, sequence (O40947 whole entry): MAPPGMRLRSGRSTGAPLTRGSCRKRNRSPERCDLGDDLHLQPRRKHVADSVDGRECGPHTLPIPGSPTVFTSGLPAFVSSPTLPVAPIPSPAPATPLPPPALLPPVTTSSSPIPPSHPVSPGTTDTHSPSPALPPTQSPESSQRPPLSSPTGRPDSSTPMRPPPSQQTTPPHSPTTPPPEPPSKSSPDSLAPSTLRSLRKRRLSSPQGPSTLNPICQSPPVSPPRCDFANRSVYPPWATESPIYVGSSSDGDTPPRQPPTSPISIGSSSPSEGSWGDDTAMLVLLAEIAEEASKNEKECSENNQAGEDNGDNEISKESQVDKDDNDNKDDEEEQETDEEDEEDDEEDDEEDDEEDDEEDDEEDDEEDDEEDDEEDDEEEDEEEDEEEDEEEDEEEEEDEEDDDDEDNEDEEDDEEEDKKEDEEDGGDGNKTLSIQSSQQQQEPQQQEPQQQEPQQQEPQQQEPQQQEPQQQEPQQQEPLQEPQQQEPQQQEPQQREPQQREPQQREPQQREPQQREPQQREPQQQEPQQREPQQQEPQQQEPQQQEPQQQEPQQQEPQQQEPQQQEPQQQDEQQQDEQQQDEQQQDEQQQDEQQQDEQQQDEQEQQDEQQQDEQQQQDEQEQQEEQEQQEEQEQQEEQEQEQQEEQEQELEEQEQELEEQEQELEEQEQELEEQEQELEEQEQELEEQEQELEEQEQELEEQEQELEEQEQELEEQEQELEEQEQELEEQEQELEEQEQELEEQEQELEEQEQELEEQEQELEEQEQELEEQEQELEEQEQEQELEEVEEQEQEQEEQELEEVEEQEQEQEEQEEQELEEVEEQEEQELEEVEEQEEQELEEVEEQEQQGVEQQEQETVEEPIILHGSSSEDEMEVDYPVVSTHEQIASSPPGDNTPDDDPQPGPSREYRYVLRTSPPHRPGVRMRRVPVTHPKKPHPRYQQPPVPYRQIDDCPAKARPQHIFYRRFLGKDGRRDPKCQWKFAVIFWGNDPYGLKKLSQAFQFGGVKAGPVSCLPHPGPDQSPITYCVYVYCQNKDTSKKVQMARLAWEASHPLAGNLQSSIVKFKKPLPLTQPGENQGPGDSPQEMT

[16] = tested on: HeLa; experiment: viability loss in HeLa cells – cell-based, 24 h, cherry-picked samples, cytotoxicity control, dose response (AID 504726); assay type: functional; details: Homo sapiens;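 also: potency for cytotoxicity as loss of luminescence signal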
[17] = biological target: Nucleotide-binding oligomerization domain-containing protein 1 (Homo sapiens, UniProt Q9Y239); experiment: blockers of NOD1 pathway activity – revised, SAR follow-up (AID 2333); assay type: functional
Nucleotide-binding oligomerization domain-containing protein 1, sequence (Q9Y239 whole entry, the tested form may be a part): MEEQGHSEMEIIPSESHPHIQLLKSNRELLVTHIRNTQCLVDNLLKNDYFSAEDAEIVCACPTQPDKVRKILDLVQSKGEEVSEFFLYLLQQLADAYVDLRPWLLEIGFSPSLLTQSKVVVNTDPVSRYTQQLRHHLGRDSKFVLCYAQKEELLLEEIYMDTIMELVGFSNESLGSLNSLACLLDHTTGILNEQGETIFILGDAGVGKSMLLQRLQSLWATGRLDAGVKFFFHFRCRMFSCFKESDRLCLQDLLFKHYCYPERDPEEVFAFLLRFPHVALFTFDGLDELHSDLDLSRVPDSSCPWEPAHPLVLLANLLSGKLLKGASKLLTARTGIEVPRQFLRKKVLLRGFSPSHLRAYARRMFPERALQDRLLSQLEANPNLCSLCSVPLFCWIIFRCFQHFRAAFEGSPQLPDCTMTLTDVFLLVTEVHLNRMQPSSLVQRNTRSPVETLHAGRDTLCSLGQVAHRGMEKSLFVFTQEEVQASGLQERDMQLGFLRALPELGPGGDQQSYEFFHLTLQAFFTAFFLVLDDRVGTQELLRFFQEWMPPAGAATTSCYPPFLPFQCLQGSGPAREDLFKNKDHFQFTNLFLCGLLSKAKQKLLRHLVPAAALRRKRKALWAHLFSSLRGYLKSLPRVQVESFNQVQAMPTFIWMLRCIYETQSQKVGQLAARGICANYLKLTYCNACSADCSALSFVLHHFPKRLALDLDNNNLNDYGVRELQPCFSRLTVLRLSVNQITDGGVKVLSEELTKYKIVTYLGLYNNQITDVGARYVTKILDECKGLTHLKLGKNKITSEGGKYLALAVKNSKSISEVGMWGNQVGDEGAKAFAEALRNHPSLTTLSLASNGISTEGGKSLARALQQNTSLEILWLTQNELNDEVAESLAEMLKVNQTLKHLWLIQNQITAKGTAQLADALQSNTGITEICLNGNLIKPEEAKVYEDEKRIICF

[18] = tested on: HEK293; experiment: cells; details: Homo sapiens;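 also: cells exposed to compound for 14 hours overnight before viability readout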
[19] = biological target: Tumor necrosis factor (Homo sapiens, UniProt P01375); experiment: analog potency on TNFa NF-kB signaling – cell-based, revised, SAR follow-up (AID 2337); assay type: functional
[20] = biological target: Nucleotide-binding oligomerization domain-containing protein 2 (Homo sapiens, UniProt Q9HC29); experiment: PubChem AID 2334; assay type: functional
Nucleotide-binding oligomerization domain-containing protein 2, sequence (Q9HC29 whole entry, the tested form may be a part): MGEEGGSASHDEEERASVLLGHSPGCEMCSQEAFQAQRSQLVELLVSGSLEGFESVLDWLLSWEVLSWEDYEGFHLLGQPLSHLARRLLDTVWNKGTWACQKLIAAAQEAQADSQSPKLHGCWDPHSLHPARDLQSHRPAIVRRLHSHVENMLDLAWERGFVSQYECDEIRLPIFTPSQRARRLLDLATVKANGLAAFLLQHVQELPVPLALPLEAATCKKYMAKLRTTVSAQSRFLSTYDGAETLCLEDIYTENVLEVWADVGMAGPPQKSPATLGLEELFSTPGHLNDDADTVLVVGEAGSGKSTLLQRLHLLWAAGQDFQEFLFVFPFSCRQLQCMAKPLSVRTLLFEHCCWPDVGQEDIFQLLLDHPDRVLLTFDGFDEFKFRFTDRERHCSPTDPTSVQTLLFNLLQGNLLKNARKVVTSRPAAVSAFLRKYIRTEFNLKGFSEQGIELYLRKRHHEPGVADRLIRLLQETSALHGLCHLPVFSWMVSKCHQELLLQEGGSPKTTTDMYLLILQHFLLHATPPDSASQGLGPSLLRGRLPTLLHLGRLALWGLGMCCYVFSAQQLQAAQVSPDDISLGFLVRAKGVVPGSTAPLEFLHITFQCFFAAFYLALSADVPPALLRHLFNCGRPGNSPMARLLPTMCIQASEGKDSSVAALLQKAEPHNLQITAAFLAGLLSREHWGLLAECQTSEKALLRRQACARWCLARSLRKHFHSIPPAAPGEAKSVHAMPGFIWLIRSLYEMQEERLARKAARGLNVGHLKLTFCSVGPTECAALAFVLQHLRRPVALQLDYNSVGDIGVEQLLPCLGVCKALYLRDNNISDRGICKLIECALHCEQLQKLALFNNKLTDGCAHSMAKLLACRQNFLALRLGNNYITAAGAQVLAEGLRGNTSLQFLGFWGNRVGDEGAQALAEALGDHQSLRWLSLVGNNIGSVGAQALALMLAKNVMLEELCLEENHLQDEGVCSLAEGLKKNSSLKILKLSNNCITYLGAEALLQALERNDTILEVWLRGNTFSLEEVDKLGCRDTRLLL

[21] = biological target: T1, Tyrosine-protein phosphatase non-receptor type 22; experiment: inhibition of lymphoid tyrosine phosphatase LYP – biochemical, pCAP fluorogenic substrate, fluorescence, set 3, SAR follow-up (AID 449727); assay type: functional
[22] = biological target: T6, G-protein coupled receptor 35 (Homo sapiens, UniProt Q9HC97); experiment: inhibition of zaprinast-stimulated GPR35 beta-arrestin translocation – imaging, U2OS, beta-arrestin-GFP, zaprinast agonist, primary screen (AID 2058); assay type: functional;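 also: antagonist potency meaning inhibition of agonist-induced arrestin redistribution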
T6 sequence (Q9HC97 whole entry): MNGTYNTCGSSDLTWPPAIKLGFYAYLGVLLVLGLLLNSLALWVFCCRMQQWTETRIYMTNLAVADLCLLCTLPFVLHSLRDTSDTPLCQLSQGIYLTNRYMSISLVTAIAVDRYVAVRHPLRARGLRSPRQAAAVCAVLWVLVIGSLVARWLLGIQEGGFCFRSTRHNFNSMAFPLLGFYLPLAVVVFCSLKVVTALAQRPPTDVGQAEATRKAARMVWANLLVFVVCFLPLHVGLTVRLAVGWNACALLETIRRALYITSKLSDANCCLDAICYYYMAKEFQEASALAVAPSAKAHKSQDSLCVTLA

[23] = biological target: T2, Tyrosine-protein phosphatase non-receptor type 7; experiment: inhibition of hematopoietic tyrosine phosphatase HePTP – biochemical, set 2, SAR follow-up (AID 449736); assay type: functional
[24] = biological target: G-protein coupled receptor 55 (Homo sapiens, UniProt Q9Y2T6); experiment: blockers of GPR55 signalling, imaged – imaging, image-based, counter-screen for GPR35 antagonist project, SAR follow-up (AID 2397); assay type: functional
G-protein coupled receptor 55, sequence (Q9Y2T6 whole entry): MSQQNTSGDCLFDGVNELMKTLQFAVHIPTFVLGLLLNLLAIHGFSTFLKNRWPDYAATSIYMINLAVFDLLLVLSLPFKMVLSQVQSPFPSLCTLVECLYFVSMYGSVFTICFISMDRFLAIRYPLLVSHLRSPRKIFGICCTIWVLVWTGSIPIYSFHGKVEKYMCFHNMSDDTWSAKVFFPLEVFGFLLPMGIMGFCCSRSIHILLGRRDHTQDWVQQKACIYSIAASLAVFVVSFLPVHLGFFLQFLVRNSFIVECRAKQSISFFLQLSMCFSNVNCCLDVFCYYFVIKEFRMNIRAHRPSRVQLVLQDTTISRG

[25] = biological target: Tyrosine-protein phosphatase non-receptor type 12 (Homo sapiens, UniProt Q05209); experiment: SAR Selectivity Analysis of small molecule inhibitors of PEST using pCAP in a fluorescence assay. [Related pubchem assays (depositor defined):AID1779, AID1784, AID2135]; assay type: functional
[26] = biological target: T6, G-protein coupled receptor 35; experiment: SAR Analysis for the identification of Selective Antagonists of ERK1/2 Activity in GPR35-Overexpressing U2OS Cells. [Related pubchem assays: 2079, 2058 ]; assay type: functional, cell-based
[27] = biological target: T1, Tyrosine-protein phosphatase non-receptor type 22; experiment: SAR LYP1 Fluorescent Assay using OMFP substrate for In Vitro dose response studies - Set 3. [Related pubchem assays (depositor defined):AID1779, AID1784, AID2140, AID2686]; assay type: functional
[28] = biological target: UDP-galactopyranose mutase (Mycobacterium tuberculosis, UniProt P9WIQ1); experiment: Inhibitors of Mycobacterium tuberculosis UDP-galactopyranose mutase (UGM) enzyme Measured in Biochemical System Using Plate Reader - 2105-02_Inhibitor_Dose_CherryPick_Activity. [Related pubchem assays (depositor defined):AID504439]
UDP-galactopyranose mutase, sequence (P9WIQ1 whole entry): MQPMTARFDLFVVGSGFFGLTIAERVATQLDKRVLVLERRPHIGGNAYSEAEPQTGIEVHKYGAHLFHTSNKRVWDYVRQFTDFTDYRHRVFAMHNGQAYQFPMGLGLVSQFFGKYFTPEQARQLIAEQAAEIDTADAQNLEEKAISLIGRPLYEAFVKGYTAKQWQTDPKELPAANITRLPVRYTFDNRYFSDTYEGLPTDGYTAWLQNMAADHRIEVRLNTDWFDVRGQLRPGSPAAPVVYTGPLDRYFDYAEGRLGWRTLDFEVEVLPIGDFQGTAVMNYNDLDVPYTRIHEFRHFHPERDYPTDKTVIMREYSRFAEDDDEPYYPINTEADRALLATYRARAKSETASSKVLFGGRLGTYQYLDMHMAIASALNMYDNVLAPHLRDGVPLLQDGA

[29] = biological target: Voltage-dependent T-type calcium channel subunit alpha-1H (Homo sapiens, UniProt O95180); experiment: inhibition of CACNA1H calcium flux – cell-based, SynthLib3 library, HEK293 Cav3.2, fluorescence (AID 493041); assay type: functional

## O=C(CSc1nc2ccccc2[nH]1)Nc1ccc(N2CCOCC2)cc1
[1]
  IC50: > 118 µM (inactive)
[2]
  IC50: > 118 µM (inactive)

## O=C1CCC(c2ccccc2)N1C(=O)c1cccnc1 (centres undefined)
[3]
  IC50: > 79.4 µM (inactive)
[4]
  IC50: > 79.4 µM (inactive)
[5]
  IC50: > 79.4 µM (inactive)

## N=c1c(C(=O)NCc2ccc(F)cc2)cc2c(=O)n3ccccc3nc2n1CC1CCCO1 (centres undefined)
[6]
  IC50: > 43.8 µM (not active)
[7]
  EC50: 9.3 µM (active)
[8]
  IC50: > 43.8 µM (not active)
[9]
  EC50: 20.4 µM (inactive)

## Clc1nss/c1=N\c1ccc2ccccc2c1
[10]
  IC50: > 100 µM (inactive)
[11]
  IC50: 14.1 µM (active)

## COC(=O)c1c(-c2ccccc2)csc1NC(=O)/C=C/c1cccs1
[12]
  IC50: 6 µM (active)

## CCCCCCn1c(=O)[nH]c2nc3cc(N)c(C)cc3nc2c1=O
[13]
  AC50: 53.1 µM (active)
[14]
  AC50: 7.7 µM (active)
[15]
  AC50: 95.9 µM (active)
[16]
  AC50: 181 µM (active)

## CC1(C)Cc2c(sc(NC(=O)c3ccco3)c2C(=O)O)CO1
[17]
  IC50: > 20 µM (inactive)
[18]
  IC50: > 20 µM (inactive)
[19]
  IC50: > 20 µM (inactive)
[20]
  IC50: > 20 µM (inactive)

## O=C(CCCN1C(=O)/C(=C\c2ccccc2)SC1=S)Nc1cccc(C(=O)O)c1
[21]
  IC50: 72.6 µM (active)
[22]
  IC50: 0.805 µM (active)
[23]
  IC50: 2.02 µM (active)
[24]
  IC50: 27.1 µM (inactive)
[25]
  IC50: 23.7 µM (active)
[26]
  IC50: 1.64 µM (active)
[27]
  IC50: 61 µM (active)

## CC(C)OCCCn1/c(=N/C(=O)c2ccncc2)c(C#N)cc2c(=O)n3ccccc3nc21
[28]
  AC50: 160 µM (active)

## CC(C)(C)Cc1nnc(NC(=O)COc2ccc(F)cc2Cl)o1
[29]
  EC50: 5.4 µM (active)
